Measured values: patent publication US12486274B2, “Substituted pyrazolo-pyrimidines and uses thereof” (Verge Analytics, Inc., priority 2020, dated 2025)

Columns and labels:
[1] = target: Full length human recombinant PIKFYVE (Homo sapiens (Human), UniProt Q9Y2I7); test: Inhibition of PIKfyve (microfluidic electrophoresis kinase assay); type: biochemical; conditions: 2 nM enzyme, PI3P/PS substrate, 3 h at room temperature, 12 concentrations
Method in brief: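 GST-tagged full-length PIKfyve (baculovirus-expressed, 2 nM final) with fluorescent PI3P/PS substrate (1 μM PI3P) and […] in HEPES pH 7.5 with Mg2+/Mn2+, 1% DMSO, 3 h at room temperature; 12 concentrations. PI(3,5)P product and substrate separated by microfluidic electrophoresis; % inhibition from product/sum ratio.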

[2] = test system: HEK 293T transfected with plasmids containing TDP-43 Q331K mutation; test: HEK/TDP Survival assay (Cell-Titer-Glo); type: cell-based; conditions: Homo sapiens; HEK 293T TDP-43 Q331K, 48 hrs, CTG readout
Protocol: HEK/TDP Survival assay: Immortalized human embryonic kidney 293T (HEK 293T) were transfected with plasmids containing TDP-43 Q331K mutation, resulting in an increase in cell death that is biologically relevant to ALS patients. Cell death is measured as reductions in the amount of ATP, an indicator of metabolically active cells, that is quantified by a luminescence Cell-Titer-Glo® (CTG) reagent. Compounds are evaluated in this model for changes in CTG compared to no treatment group. Increased signal indicates improved survival (rescue) and decreased signal indicates decreased survival.
Cell rescue was measured in a 96-well format with eight different concentrations of the test compound over 48 hrs with 6 replicates. The Promega Cell-Titer-Glo® Luminescent Cell Viability Assay was used to quantify ATP, an indicator of metabolically active cells (see protocol: https://www.promega.com/-/media/files/resources/protocols/technical-manuals/101/celltiterglo-2-O-assay-protocol.pdf?la=en). The luminescence signal was detected using the PerkinElmer En Vision or Molecular Devices SpectraMax.
The effect of a compound at a given dose on cell viability was determined using a three step procedure. First, Hedge's g for the Cell Titer-Glo luminescence values using six untreated wells on every plate as a control was calculated. […] Finally, values from all compound-dose pairs were corrected for multiple hypothesis testing using the Empirical Bayes framework of Stephens, M. (False discovery rates: a new deal, Biostatistics, 18 [2], 2017, 275-294) yielding credible intervals for the measured effect and associated s values.
Briefly, this method computes a local false sign rate for each experiment. Analogous to the local false discovery rate of Efron, B. (Size, power and false discovery rates, Ann. Statist. 35 [4], 2007, 1351-1377) this value measures the confidence in the sign of each effect (rather than confidence in each effect being non-zero). The s values reported in the previous figures are the expected fraction of errors if estimating the sign of all effects with greater absolute local false sign rate, defined in analogy to the q value of Storey, JD (The positive false discovery rate: a Bayesian interpretation and the q-value, Ann. Statist. 31 [6] 2003, 2013-2035).
Drugs that yielded signed log s values greater than 3 were considered hits. This threshold was determined by a separate calibration experiment in which Cell Titer-Glo® was measured in blank plates consisting of untreated cells to assess the noise inherent in the assay. Data are presented as the maximal effect of rescue obtained from the dose-response curve.

[3] = test system: C9 iPSC MN (ALS patient derived motor neurons); test: iPSC MN Survival assay; type: cell-based, human; conditions: for EC50: Homo sapiens, iPSC, 144 h, motor neurons in nutrient deprived media (HBSS), six days, GFP imaging, read-out: C9 iPSC MN Significant survival rescue EC50; for C9 iPSC MN Survival hazard ratio: maximal reduction in hazard ratio vs control (Cox regression), <1.0 indicates increased survival
Protocol: [The source words this procedure for another variant and reports this variant under the same test.] iPSC MN Survival assay: Fibroblasts from ALS patients with known SOD1 A4V mutation were reprogrammed into inducible pluripotent stem cells (iPSC) and then differentiated to motor neurons. In culture, ALS patient derived motor neurons show increased death rate compared to motor neurons derived from healthy individuals in a stressed condition (nutrient deprived media, Hank's buffered salt solution-HBSS).
Cell rescue was measured following more than two different concentrations of each compound for six days with greater than four replicates in a 96-well format to ensure studies with power >0.8. Cells are transduced with a GFP reporter and imaged once a day to track survival. A broad-spectrum caspase inhibitor served as the positive control.
Microscopy image-based readout: Cells are transduced with a GFP reporter and imaged once a day with a blue laser to track survival. Imagers used include the Biotek Cytation 5 and Thermo Fisher EVOS Auto FL 2. All Images undergo uniform processing consisting of rolling hat background subtraction and contrast adjustment.
Cells are identified by their shape and each cell is tracked across images and time points for each well. Survival is visually assessed from the Kaplan-Meier curves. Survival of the cells is modeled and tested using a mixed effects Cox regression where each well is modeled as the random effect, and the group (control/treatment) as the fixed effect. Hazard ratios between treatment and control are estimated within the Cox regression where a value of 1.0 denotes no change, values >1.0 indicate decreased survival in response to treatment, and values <1.0 indicate increased survival in response to treatment. Data are presented as the maximal reduction in hazard ratio scores measured at various concentrations.

Sequence of Full length human recombinant PIKFYVE (Q9Y2I7 whole entry): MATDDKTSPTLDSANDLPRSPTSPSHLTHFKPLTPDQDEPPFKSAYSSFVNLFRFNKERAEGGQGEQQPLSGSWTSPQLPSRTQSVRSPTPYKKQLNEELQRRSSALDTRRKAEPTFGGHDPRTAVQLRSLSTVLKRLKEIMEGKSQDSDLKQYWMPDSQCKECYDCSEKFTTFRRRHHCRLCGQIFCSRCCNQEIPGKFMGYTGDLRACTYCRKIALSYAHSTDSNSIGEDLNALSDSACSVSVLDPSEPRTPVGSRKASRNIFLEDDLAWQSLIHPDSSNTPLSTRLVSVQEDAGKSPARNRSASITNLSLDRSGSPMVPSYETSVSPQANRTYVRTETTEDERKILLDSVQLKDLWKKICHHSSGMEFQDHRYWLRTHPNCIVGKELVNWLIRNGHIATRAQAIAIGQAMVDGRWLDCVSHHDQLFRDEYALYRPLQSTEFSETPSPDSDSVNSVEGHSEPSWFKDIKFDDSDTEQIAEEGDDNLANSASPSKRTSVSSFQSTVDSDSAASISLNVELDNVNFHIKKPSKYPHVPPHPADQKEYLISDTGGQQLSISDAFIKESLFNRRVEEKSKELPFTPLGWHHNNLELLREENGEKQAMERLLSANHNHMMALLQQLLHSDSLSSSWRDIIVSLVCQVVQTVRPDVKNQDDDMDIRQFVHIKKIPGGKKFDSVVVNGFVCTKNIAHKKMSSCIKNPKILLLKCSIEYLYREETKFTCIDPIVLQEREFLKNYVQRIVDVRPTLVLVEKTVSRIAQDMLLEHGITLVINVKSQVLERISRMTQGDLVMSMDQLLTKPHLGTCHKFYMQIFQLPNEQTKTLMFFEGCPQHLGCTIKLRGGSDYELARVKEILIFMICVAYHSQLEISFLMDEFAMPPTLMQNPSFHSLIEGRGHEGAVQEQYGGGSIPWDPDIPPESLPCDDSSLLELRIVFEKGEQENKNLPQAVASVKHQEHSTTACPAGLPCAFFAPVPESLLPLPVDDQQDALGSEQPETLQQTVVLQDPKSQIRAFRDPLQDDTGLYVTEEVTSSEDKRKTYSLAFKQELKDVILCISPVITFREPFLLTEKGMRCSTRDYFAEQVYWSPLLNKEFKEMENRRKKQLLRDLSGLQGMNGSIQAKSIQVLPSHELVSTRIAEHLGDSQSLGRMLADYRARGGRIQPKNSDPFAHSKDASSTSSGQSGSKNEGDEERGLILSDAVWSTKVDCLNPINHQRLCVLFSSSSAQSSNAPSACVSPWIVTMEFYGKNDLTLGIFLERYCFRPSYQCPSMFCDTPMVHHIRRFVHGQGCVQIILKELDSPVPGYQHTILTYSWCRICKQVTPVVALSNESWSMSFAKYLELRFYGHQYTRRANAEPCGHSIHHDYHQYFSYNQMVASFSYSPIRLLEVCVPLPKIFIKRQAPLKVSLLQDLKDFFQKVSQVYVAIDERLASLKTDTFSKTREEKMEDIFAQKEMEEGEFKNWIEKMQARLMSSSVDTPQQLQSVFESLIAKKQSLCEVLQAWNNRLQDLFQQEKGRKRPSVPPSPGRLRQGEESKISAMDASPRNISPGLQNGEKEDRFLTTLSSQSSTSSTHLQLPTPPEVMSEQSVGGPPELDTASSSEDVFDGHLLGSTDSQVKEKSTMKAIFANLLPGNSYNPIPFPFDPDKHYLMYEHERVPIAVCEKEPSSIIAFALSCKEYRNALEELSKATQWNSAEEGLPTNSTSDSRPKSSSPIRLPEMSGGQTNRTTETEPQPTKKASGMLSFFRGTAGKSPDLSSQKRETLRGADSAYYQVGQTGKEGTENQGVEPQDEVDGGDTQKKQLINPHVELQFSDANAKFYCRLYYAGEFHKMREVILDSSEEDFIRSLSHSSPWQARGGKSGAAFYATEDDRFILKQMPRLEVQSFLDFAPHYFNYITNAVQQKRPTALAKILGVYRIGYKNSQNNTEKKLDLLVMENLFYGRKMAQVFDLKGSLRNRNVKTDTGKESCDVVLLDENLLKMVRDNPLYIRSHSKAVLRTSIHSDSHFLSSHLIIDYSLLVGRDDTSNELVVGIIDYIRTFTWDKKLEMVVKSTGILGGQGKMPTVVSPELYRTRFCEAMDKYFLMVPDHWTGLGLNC

| Compound | IC50 [1] [nM] | EC50 [2] [nM] | EC50 [3] [nM] | C9 iPSC MN Survival hazard ratio [3] |
| --- | --- | --- | --- | --- |
| Cc1cccc(-c2ccn(-c3cc(N4CCOCC4)n4nc(-c5ccncc5)cc4n3)n2)c1 [Example 14, 4-[5-[3-(m-tolyl)pyrazol-1-yl]-2-(4-pyridyl)pyrazolo[1,5-a]pyrimidin-7-yl]morpholine] | 4.3 | 144 | > 6000 | 0.94 |
| Cc1cccc(-c2ccn(-c3cc(N4CCOCC4)n4nc(-c5cccnc5)cc4n3)n2)c1 [Example 17, 4-(2-(pyridin-3-yl)-5-(3-(m-tolyl)-1H-pyrazol-1-yl)pyrazolo[1,5-a]pyrimidin-7-yl)morpholine] | 6.8 | 95 | 1000 | 0.82 |
| Cc1cccc(-c2ccn(-c3cc(N4CCOCC4)n4nc(C(=O)NC5CC5)cc4n3)n2)c1 [Example 20, N-cyclopropyl-7-morpholino-5-(3-(m-tolyl)-1H-pyrazol-1-yl)pyrazolo[1,5-a]pyrimidine-2-carboxamide] | 30.2 | 103 |  | 0.85 |
| Cc1cccc(-c2ccn(-c3cc(N4CCOCC4)n4nc(C(=O)N[C@@H](C)C5CC5)cc4n3)n2)c1 [Example 22, (S)—N-(1-cyclopropylethyl)-7-morpholino-5-(3-(m-tolyl)-1H-pyrazol-1-yl)pyrazolo[1,5-a]pyrimidine-2-carboxamide] | 12.6 | 112 |  |  |
| CONC(=O)c1cc2nc(-n3ccc(-c4cccc(C)c4)n3)cc(N3CCOCC3)n2n1 [Example 34, N-methoxy-7-morpholino-5-(3-(m-tolyl)-1H-pyrazol-1-yl)pyrazolo[1,5-a]pyrimidine-2-carboxamide] | 65.6 |  |  | 0.82 |
| Cc1cccc(-c2ccn(-c3cc(N4CCOCC4)n4nc(C(=O)NCCCCN(C)C)cc4n3)n2)c1 [Example 41, N-(4-(dimethylamino)butyl)-7-morpholino-5-(3-(m-tolyl)-1H-pyrazol-1-yl)pyrazolo[1,5-a]pyrimidine-2-carboxamide] | 32.4 | 67 |  |  |

The remaining molecules from weak to strong by IC50 [1], led by results:

| IC50 [1] [nM] | Compound | EC50 [2] [nM] | EC50 [3] [nM] | C9 iPSC MN Survival hazard ratio [3] |
| --- | --- | --- | --- | --- |
| 46.4 | Cc1cccc(-c2ccn(-c3cc(N4CCOCC4)n4nc(C(=O)NCC5COC5)cc4n3)n2)c1 [Example 43, 7-morpholino-N-(oxetan-3-ylmethyl)-5-(3-(m-tolyl)-1H-pyrazol-1-yl)pyrazolo[1,5-a]pyrimidine-2-carboxamide] | 92 |  |  |
| 29.6 | Cc1cccc(-c2ccn(-c3cc(N4CCOCC4)n4nc(-c5ccccn5)cc4n3)n2)c1 [Example 18, 4-(2-(pyridin-2-yl)-5-(3-(m-tolyl)-1H-pyrazol-1-yl)pyrazolo[1,5-a]pyrimidin-7-yl)morpholine] | 105 | 1000 |  |
| 21.6 | Cc1cccc(-c2ccn(-c3cc(N4CCOCC4)n4nc(C(=O)N[C@H](C)C5CC5)cc4n3)n2)c1 [Example 21, (R)—N-(1-cyclopropylethyl)-7-morpholino-5-(3-(m-tolyl)-1H-pyrazol-1-yl)pyrazolo[1,5-a]pyrimidine-2-carboxamide] | 110 |  |  |
| 21.6 | Cc1cccc(-c2ccn(-c3cc(N4CCOCC4)n4nc(C(=O)NC5CCCC5)cc4n3)n2)c1 [Example 36, N-cyclopentyl-7-morpholino-5-(3-(m-tolyl)-1H-pyrazol-1-yl)pyrazolo[1,5-a]pyrimidine-2-carboxamide] | 67 |  |  |
